Earlier results on 1 compound are cited in patent publication US20240180950A1, “Prevention and Treatment of Post-Infection Neurological Disorders and Clotting/Thrombotic Disorders” (priority 2021, published 2024).

For the series the following is noted: 250 mg, 500 mg, 1000 mg, 2000 mg, and 4000 mg per day, per person, in 2 or 3 divided doses.

Turning to `Nc1nc2c(ncn2[C@@H]2O[C@H](COP(=O)(O)O)[C@@H](O)[C@H]2O)c(=O)[nH]1` [guanosine monophosphate], the “safety of daily human doses of guanosine monophosphate” value is reported as “safe”.
